Laboratory results as given in ChEMBL document CHEMBL1201862, “PubChem BioAssay data set” (2004).
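Results reflect a 48-hour exposure of cells in 96-well plates to compound at five concentrations. GI50: concentration for 50% inhibition of growth.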 Active and inactive are the calls of the source. No stated cut-off is given here; in the data, active = GI50 up to about 1.1 µM and inactive = higher.

Columns and labels:
Assay in all cases: DTP human tumour cell line panel, 48 h
NCI-H23 = tested on: NCI-H23
NCI-H460 = tested on: NCI-H460
LOX IMVI = tested on: LOX IMVI
SNB-19 = tested on: SNB-19
MOLT-4 = tested on: MOLT-4
SK-MEL-28 = tested on: SK-MEL-28
OVCAR-8 = tested on: OVCAR-8
SF-295 = tested on: SF-295
UACC-257 = tested on: UACC-257
M19-MEL = tested on: M19-MEL
HCT-116 = tested on: HCT-116
SK-MEL-2 = tested on: SK-MEL-2
XF498 = tested on: XF498
OVCAR-5 = tested on: OVCAR-5
Malme-3M = tested on: Malme-3M
OVCAR-4 = tested on: OVCAR-4
IGROV-1 = tested on: IGROV-1
SF-539 = tested on: SF-539
HCT-15 = tested on: HCT-15
KM12 = tested on: KM12
CAKI-1 = tested on: CAKI-1
RXF 631 = tested on: RXF 631
U-251 = tested on: U-251
HOP-62 = tested on: HOP-62
KM-20L2 = tested on: KM-20L2
SR = tested on: SR
M14 = tested on: M14
NCI-H522 = tested on: NCI-H522
OVCAR-3 = tested on: OVCAR-3
ACHN = tested on: ACHN
SNB-78 = tested on: SNB-78
HT-29 = tested on: HT-29
SK-MEL-5 = tested on: SK-MEL-5
LXFL 529 = tested on: LXFL 529
SW-620 = tested on: SW-620
COLO 205 = tested on: COLO 205
A549 = tested on: A549
DMS-273 = tested on: DMS-273
K562 = tested on: K562
CCRF-CEM = tested on: CCRF-CEM
SF-268 = tested on: SF-268
TK-10 = tested on: TK-10
EKVX = tested on: EKVX
UO-31 = tested on: UO-31
UACC-62 = tested on: UACC-62
HL-60 = tested on: HL-60
DMS-114 = tested on: DMS-114
SN12C = tested on: SN12C
RXF 393 = tested on: RXF 393
786-0 = tested on: 786-0
HOP-92 = tested on: HOP-92
RPMI-8226 = tested on: RPMI-8226
SNB-75 = tested on: SNB-75
DLD-1 = tested on: DLD-1
HOP-18 = tested on: HOP-18
SK-OV-3 = tested on: SK-OV-3
NCI-H226 = tested on: NCI-H226
A498 = tested on: A498

Question: For `COC(C(=O)NCCCCNC(=O)C(OC)c1ccccc1)c1ccccc1` (stereo not drawn), which GI50 (NCI-H23) is on record?
Answer: > 100 µM (inactive)

Question: What about the GI50 (NCI-H460) of the same compound?
Answer: > 100 µM (inactive)

Question: What about the GI50 (LOX IMVI) of the same compound?
Answer: > 100 µM (inactive)

Question: What about the GI50 (SNB-19) of the same compound?
Answer: > 100 µM (inactive)

Question: What about the GI50 (MOLT-4) of the same compound?
Answer: > 100 µM (inactive)

Question: And the GI50 (SK-MEL-28)?
Answer: > 100 µM (inactive)

Question: What about the GI50 (OVCAR-8) of the same compound?
Answer: > 100 µM (inactive)

Question: And the GI50 (SF-295)?
Answer: > 100 µM (inactive)

Question: What about the GI50 (UACC-257) of the same compound?
Answer: > 100 µM (inactive)

Question: What about the GI50 (M19-MEL) of the same compound?
Answer: > 100 µM (inactive)

Question: What about the GI50 (HCT-116) of the same compound?
Answer: > 100 µM (inactive)

Question: And the GI50 (SK-MEL-2)?
Answer: > 100 µM (inactive)

Question: And the GI50 (XF498)?
Answer: > 100 µM (inactive)

Question: And the GI50 (OVCAR-5)?
Answer: > 100 µM (inactive)

Question: And the GI50 (Malme-3M)?
Answer: > 100 µM (inactive)

Question: And the GI50 (OVCAR-4)?
Answer: > 100 µM (inactive)

Question: What about the GI50 (IGROV-1) of the same compound?
Answer: > 100 µM (inactive)

Question: What about the GI50 (SF-539) of the same compound?
Answer: > 100 µM (inactive)

Question: And the GI50 (HCT-15)?
Answer: > 100 µM

Question: And the GI50 (KM12)?
Answer: > 100 µM (inactive)

Question: And the GI50 (CAKI-1)?
Answer: > 100 µM (inactive)

Question: And the GI50 (RXF 631)?
Answer: > 100 µM (inactive)

Question: And the GI50 (U-251)?
Answer: > 100 µM (inactive)

Question: And the GI50 (HOP-62)?
Answer: > 100 µM (inactive)

Question: What about the GI50 (KM-20L2) of the same compound?
Answer: > 100 µM (inactive)

Question: And the GI50 (SR)?
Answer: > 100 µM (inactive)

Question: What about the GI50 (M14) of the same compound?
Answer: > 100 µM (inactive)

Question: And the GI50 (NCI-H522)?
Answer: > 100 µM (inactive)

Question: What about the GI50 (OVCAR-3) of the same compound?
Answer: > 100 µM (inactive)

Question: And the GI50 (ACHN)?
Answer: > 100 µM (inactive)

Question: And the GI50 (SNB-78)?
Answer: > 100 µM (inactive)

Question: And the GI50 (HT-29)?
Answer: > 100 µM (inactive)

Question: And the GI50 (SK-MEL-5)?
Answer: > 100 µM (inactive)

Question: What about the GI50 (LXFL 529) of the same compound?
Answer: > 100 µM (inactive)

Question: What about the GI50 (SW-620) of the same compound?
Answer: > 100 µM (inactive)

Question: What about the GI50 (COLO 205) of the same compound?
Answer: > 100 µM (inactive)

Question: And the GI50 (A549)?
Answer: > 100 µM (inactive)

Question: And the GI50 (DMS-273)?
Answer: > 100 µM (inactive)

Question: What about the GI50 (K562) of the same compound?
Answer: > 100 µM (inactive)

Question: What about the GI50 (CCRF-CEM) of the same compound?
Answer: > 100 µM (inactive)

Question: And the GI50 (SF-268)?
Answer: > 100 µM (inactive)

Question: And the GI50 (TK-10)?
Answer: > 100 µM (inactive)

Question: What about the GI50 (EKVX) of the same compound?
Answer: > 100 µM (inactive)

Question: And the GI50 (UO-31)?
Answer: > 100 µM (inactive)

Question: What about the GI50 (UACC-62) of the same compound?
Answer: > 100 µM (inactive)

Question: And the GI50 (HL-60)?
Answer: > 100 µM (inactive)

Question: What about the GI50 (DMS-114) of the same compound?
Answer: > 100 µM (inactive)

Question: What about the GI50 (SN12C) of the same compound?
Answer: > 100 µM (inactive)

Question: And the GI50 (RXF 393)?
Answer: > 100 µM (inactive)

Question: And the GI50 (786-0)?
Answer: > 100 µM (inactive)

Question: And the GI50 (HOP-92)?
Answer: > 100 µM (inactive)

Question: And the GI50 (RPMI-8226)?
Answer: > 100 µM (inactive)

Question: And the GI50 (SNB-75)?
Answer: > 100 µM (inactive)

Question: And the GI50 (DLD-1)?
Answer: > 100 µM (inactive)

Question: And the GI50 (HOP-18)?
Answer: > 100 µM (inactive)

Question: And the GI50 (SK-OV-3)?
Answer: > 100 µM (inactive)

Question: What about the GI50 (NCI-H226) of the same compound?
Answer: > 100 µM (inactive)

Question: What about the GI50 (A498) of the same compound?
Answer: > 100 µM (inactive)
